Test results reported in US20180243190A1, “ACTIVATORS OF NRF2-DEPENDENT PHOTOPROTECTION AND RELATED USES THEREOF” (THE ARIZONA BOARD OF REGENTS ON BEHALF OF THE UNIVERSITY OF …, priority 2015, published 2018).

What was measured:
[1] = test system: NRF2 transcriptional activity; assay: Dual luciferase NQO1-ARE reporter assay in HaCaT keratinocytes; assay type: cell-based, human; settings: 10-40 μM, 16 h
Procedure: Transfection of cDNA was performed using Lipofectamine 3000 (Invitrogen) according to the manufacturer's instructions. Activation of NRF2 transcriptional activity was performed as previously published. Briefly, HaCaT cells were cotransfected with expression vectors for either KEAP1 wild type (KEAP1-WT) or KEAP1 with a mutation that generates a protein that contains a serine residue instead of a cysteine (KEAP1-C151S), along with NQO1-ARE firefly luciferase and Renilla luciferase reporters. At 24 h post-transfection, cells were left untreated or treated with SF (5 μM), As (5 μM), or bixin (40 μM) for 16 h. The cells were then lysed for analysis of the reporter gene activity using the Promega dual-luciferase reporter gene assay system.

HaCaT keratinocytes = assay: GSH-Glo glutathione assay; assay type: cell-based, human; settings: bixin 0-40 μM, 24 h
Procedure: Total intracellular glutathione in cultured cells was analyzed using the luminescent GSH-Glo glutathione assay (Promega). Cells were harvested and then counted using a Z2 Coulter counter, and GSH was determined per 10,000 viable cells. Data represent relative levels of glutathione normalized for cell number (treated versus solvent controls).

[2] = parameters: species or system SKH-1 mice; settings: mouse, in vivo, 200 mg/kg
Source text: To explore the potential systemic photoprotective activity of bixin in a murine skin sunburn model, the feasibility of upregulating cutaneous NRF2 activity by systemic administration was first examined. It has been reported earlier that efficient cutaneous accumulation of dietary carotenoids requires prolonged nutritional supplementation over weeks and that pharmacokinetic parameters of cutaneous delivery of dietary carotinoids differ between humans and mice. Therefore, in order to circumvent the more complex pharmacokinetics associated with dietary supplementation, an intraperitoneal (i.p.) route for bixin systemic administration followed by examination of cutaneous NRF2 status was chosen. After i.p. injection of bixin (200 mg/kg) performed in Nrf2^+/+ and Nrf2^−/− mice, plasma was collected at 0, 1, 2, 4, 8, 16, 24, 48 and 72 h after injection followed by HPLC-photodiode array detection (FIG. 4A-C). […] Next, efficacy of various bixin treatment regimens (differing with regard to total dose and time after injection) for maximum activation of the NRF2 pathway in murine skin was determined (FIG. 4D).
Electrospray mass spectrometry of bixin [dissolved in tetrahydrofuran and diluted tenfold in acetonitrile/NH4OH (0.1 N); ESI-MS (negative ion mode) m/z 393.21 (M−1)^−] was performed using a Bruker Apex FT/ICR mass spectrometer. […]

SKH-1 mice skin = assay: Solar UV photodamage model; assay type: in vivo
Procedure: Next, the feasibility of bixin-induced cutaneous protection was studied in a solar UV photodamage model. Nrf2^+/+ and Nrf2^−/− mice were i.p. injected with either corn oil (carrier control) or bixin (200 mg/kg) 48 h before solar UV exposure (240 mJ/cm^2 UVB; 4.4 J/cm^2 UVA). 24 h after UV exposure back skin tissue was then collected followed by immunohistochemical (IHC) analysis. […] Moreover, UV exposure alone activated the NRF2 response in murine skin, effects not detectable in Nrf2^−/− mice (FIG. 5).
Irradiation with solar UV occurred as described before. A KW large area light source solar simulator, model 91293, from Oriel Corporation (Stratford, Conn.) was used, equipped with a 1000 W Xenon arc lamp power supply, model 68920, and a VIS-IR bandpass blocking filter combined with an atmospheric attenuation filter (output 290-400 nm plus residual 650-800 nm). At 345 mm from the source, the UV dose was 4.4 J/cm^2 UVA+240 mJ/cm^2 UVB radiation.
Nrf2^+/+ and Nrf2^−/− SKH-I mice were obtained by breeding Nrf2 heterozygous mice generated by back-crossing Nrf2^−/− C57BL/6 mice onto the SKH-1 hairless mouse genetic background for at least six generations (JAX® Mice, The Jackson Laboratory). All animals received water and food ad libitum and were handled according to the Guide for the Care and Use of Laboratory Animals; the protocols were approved by the University of Arizona Institutional Animal Care and Use Committee. Eight-week-old Nrf2^+/+ and Nrf2^−/− mice were randomly allocated into four groups (n=6): (i) control (corn oil); (ii) bixin (200 mg/kg, dissolved in corn oil); (iii) UV; (iv) bixin+UV. Bixin was administered through intraperitoneal (i.p.) injection 48 h before UV exposure.
24 h after UV exposure, the mice were euthanized and back skin was collected and divided into two parts: one part was frozen in liquid nitrogen for total RNA extraction and protein analysis; the other part was fixed in 10% buffered formalin and embedded in paraffin for histological and immunohistochemical analyses. Tissue sections (4 μm) were baked and deparaffinized. Hematoxylin and eosin (H&E) staining was performed for pathological examination. Antigen retrieval was carried out by boiling the slides with retrieval solution (citric acid monohydrate 2.1 g/L in H2O pH=6.0) three times for 5 min [43]. Tissue sections were then exposed to 3.5 M HCl for 15 min at room temperature and washed with PBS. Subsequently, tissue sections were treated with 0.3% […] to quench endogenous peroxidase activity. Tissue sections were incubated with 5% normal goat serum for 30 min followed by 2 h incubation with primary antibodies at 1:100 dilution at room temperature. Staining was performed using the EnVision+System-HRP (DAB) kit (Dako) according to the manufacturer's instructions.
An in situ cell death detection kit (Roche) was used for detection of apoptotic cell death in skin sections according to the manufacturer's instructions. Briefly, tissue sections were pretreated with proteinase K (20 μg/ml) in 10 mM Tris/HCl (pH 7.8) at 37° C. for 30 min. After washing three times with PBS, tissue sections were incubated with TUNEL reaction mixture for 1 h at 37° C. in the dark. Tissue sections were then stained with Hoechst, and analyzed using a fluorescence microscope (Zeiss Observer.Zi microscope; slidebook computer program; excitation wavelength: 450-500 nm; detection wavelength: 515-565 nm). Hoechst stain was visualized under UV light.

[3] = 200 mg/kg i.p. 48 h before solar UV, effect confined to Nrf2+/+ mice

SMILES: COC(=O)/C=C/C(C)=C\C=C\C(C)=C\C=C\C=C(C)\C=C\C=C(C)\C=C\C(=O)O [bixin]
- NRF2 transcriptional activity [1]: dose-dependent induction
- increase of total cellular glutathione (HaCaT keratinocytes): ~50%
- AUC, Nrf2+/+ versus Nrf2−/− [2]: did not differ significantly
- peak plasma concentration (Cmax) ([2]; ip): up to 11.3 μg/ml
- UV-induced apoptosis (TUNEL-positive cells) (SKH-1 mice skin; [3]): suppressed
- UV-induced epidermal thickening (SKH-1 mice skin; [3]): suppressed
- cyclobutane pyrimidine dimer (CPD)-lesions (SKH-1 mice skin; Nrf2+/+ and Nrf2−/− mice, 200 mg/kg i.p.): not antagonized
- UV-induced epidermal expression of MMP9 (IHC) (SKH-1 mice skin; Nrf2+/+ mice only, 200 mg/kg i.p.): significantly antagonized
- UV-elicited keratinocyte hyperproliferation (Ki67 IHC) (SKH-1 mice skin; Nrf2+/+ mice, 200 mg/kg i.p.): suppression
- UV-enhanced 8-oxo-dG staining (IHC) (SKH-1 mice skin; Nrf2+/+ mice, 200 mg/kg i.p.): suppressed
- UV-induced p-p65 accumulation in the skin (SKH-1 mice skin; Nrf2+/+ mice, 200 mg/kg i.p.): decreased
- UV-enhanced 8-oxo-dG staining (IHC) (SKH-1 mice skin; Nrf2−/− mice, 200 mg/kg i.p.): not Nrf2^−/− mice
- UV-induced p-p65 accumulation in the skin (SKH-1 mice skin; Nrf2−/− mice, 200 mg/kg i.p.): minimal effects
- UV-induced NF-κB target gene expression (IL6, TNFα, MMP9) at the mRNA level (SKH-1 mice skin; observed only in Nrf2+/+ mice, 200 mg/kg i.p.): attenuation
